Measurements reported in patent US20150166524A1, “CRYSTALLINE FORM OF MASITINIB” (SANDOZ AG, priority 2013, published 2015).

Legend:
[1] = cited from earlier work; for polymorphic conversion: DRX2: upon temperature increase, DRX3: outside dry conditions
[2] = Behaviour on heating by TG/DTA; type: physicochemical; conditions: lost small amounts of water
Protocol: Thermogravimetric analyses were carried out on a Mettler Toledo TGA/DSC1 STARe. The calibration standards were indium and tin. Samples were placed in an aluminium sample pan, inserted into the TG furnace and accurately weighed. The heat flow signal was stabilised for one minute at 30° C., prior to heating to 270° C. in a stream of nitrogen at a rate of 10° C./minute.
Masitinib mesylate (25 mg) was charged into a scintillation vial followed by methanol (containing small amounts of water; 1.0 mL). The suspension was then heated until the masitinib mesylate had dissolved. The masitinib mesylate solution in methanol was then allowed to slowly cool to room temperature. The crystals which formed were then harvested by filtration and analyzed by XRPD and TG/DTA.

[3] = Dynamic Vapour Sorption (DVS) hygroscopicity; type: physicochemical
Protocol: Dynamic Vapour Sorption (DVS) was performed using a Hiden Analytical Instruments IGAsorp Vapour Sorption Balance. Approximately 30 mg of sample was placed into a wire-mesh vapour sorption balance pan, loaded into the IGAsorp vapour sorption balance and held at 25° C.±0.1° C. The sample was subjected to a step profile from 40% RH to 90% RH at 10% increments, followed by desorption from 90% RH to 0% RH at 10% increments and a second adsoriotn cycle from 0% RH to 90% RH. The equilibrium criterion was set to 99.0% step completion within a minimum of 60 minutes and a maximum of 5 hours for each increment. The weight change during the sorption cycle was monitored, allowing for the hygroscopic nature of the sample to be determined. The data collection interval was in seconds.
The hygrosopicity of masitinib mesylate form H as obtained from example 2 was assessed by DVS. The DVS isotherm was initiated at 40% r.h. and increased to 70% r.h. The weight gain in this relative humidity interval was below 0.27% (w/w).

[4] = cited from earlier work
[5] = as described in response to the eESR

## masitinib mesylate [DRX2]
[1]
  polymorphic conversion: slowly, but fully, converts to DRX1
[1]; [5]
  polymorphic stability: stable only at 25 °C

## masitinib mesylate [Comparative Example]
[2]
  polymorphic conversion upon heating: converted to masitinib mesylate crystal form I upon heating

## masitinib mesylate [DRX3]
[1]
  polymorphic conversion: quickly converts to DRX2
[1]; [5]
  polymorphic stability: stable under dry conditions only

## Masitinib mesylate [form H]
[3]; DVS
  hygroscopicity compared with form I: less hygroscopic than masitinib mesylate form I
[3]; DVS isotherm from 40% r.h. to 70% r.h., form H from example 2
  weight gain in relative humidity interval (DVS): below 0.27 % (w/w)
[3]; interval of relative humidity between 40% and 70% r.h.
  water absorbed (DVS): less than 0.5 weight %

## Masitinib mesylate [crystal form I]
[4]; 80% relative humidity
  behaviour at 80% relative humidity: remains dry
[4]; at temperatures below 200° C.
  thermodynamic stability: thermodynamically stable
[1]; [5]
  hygroscopicity: mildly hygroscopic
